Key:
Format in all cases: biochemical
[1] = biological target: PKR T384W (Homo sapiens, UniProt P30613, T384W); assay: PKR T384W Single Point Percent Activation Assay; details: read-out: Act. % 384W
Protocol: PKR T384W Single Point Percent Activation Assay
(§1) A compound described herein was diluted with DMSO and tested at 1 μM concentration. The enzyme was diluted in 1× Buffer: (100 mM KCl, 50 mM Tris 7.5, 5 mM MgCl2, 1 mM DTT, 0.03% BSA). 2 μL of compound solution was first added into wells, and then 180 μL enzyme solution was added. Assays were assembled except for ADP, and plates were stored for 60 minutes at RT. 20 μL ADP was added to start the assay and assay output was evaluated using OD340 at SpectraMax. The assay was run at room temperature.
Final concentration: PKR T384W soluble (300 ng/well), Tris pH 7.5 (50 mM), KCl (100 mM), MgCl2 (5 mM), ADP (0.08 mM), PEP (0.23 mM), NADH (180 μM), LDH (0.5 units, Sigma 59023), DTT (1 mM) and BSA (0.03%).

[2] = biological target: PKR wt (Homo sapiens, UniProt P30613); assay: PKR WT Single Point Percent Activation Assay
Protocol: PKR WT Single Point Percent Activation Assay
as §1, with “180 μL of enzyme solution” for “180 μL enzyme solution”
Final concentration: PKR wt (100 ng/well), Tris pH 7.5 (50 mM), KCl (100 mM), MgCl2 (5 mM), ADP (0.48 mM), PEP (0.15 mM), NADH (180 μM), LDH (0.5 units, Sigma 59023), DTT (1 mM) and BSA (0.03%).

[3] = biological target: PKR R532W (Homo sapiens, UniProt P30613, R532W); assay: PKR R532W Single Point Percent Activation Assay; details: read-out: Act, % 532W
Protocol: PKR R532W Single Point Percent Activation Assay
as §1, with “180 μL of enzyme solution” for “180 μL enzyme solution”
Final concentration: PKR R532W (100 ng/well), Tris pH 7.5 (50 mM), KCl (100 mM), MgCl2 (5 mM), ADP (0.36 mM), PEP (0.1 mM), NADH (180 μM), LDH (0.5 units, Sigma 59023), DTT (1 mM) and BSA (0.03%).

[4] = biological target: PKR R510Q (Homo sapiens, UniProt P30613, R510Q); assay: PKR R510Q Single Point Percent Activation Assay; details: read-out: Act. % 510Q
Protocol: PKR R510Q Single Point Percent Activation Assay
as §1, with “180 μL of enzyme solution” for “180 μL enzyme solution”
Final concentration: PKR R510Q (40 ng/well), Tris pH 7.5 (50 mM), KCl (100 mM), MgCl2 (5 mM), ADP (0.2 mM), PEP (0.11 mM), NADH (180 μM), LDH (0.5 units, Sigma 59023), DTT (1 mM) and BSA (0.03%).

PKR T384W, sequence (P30613 whole entry T384W): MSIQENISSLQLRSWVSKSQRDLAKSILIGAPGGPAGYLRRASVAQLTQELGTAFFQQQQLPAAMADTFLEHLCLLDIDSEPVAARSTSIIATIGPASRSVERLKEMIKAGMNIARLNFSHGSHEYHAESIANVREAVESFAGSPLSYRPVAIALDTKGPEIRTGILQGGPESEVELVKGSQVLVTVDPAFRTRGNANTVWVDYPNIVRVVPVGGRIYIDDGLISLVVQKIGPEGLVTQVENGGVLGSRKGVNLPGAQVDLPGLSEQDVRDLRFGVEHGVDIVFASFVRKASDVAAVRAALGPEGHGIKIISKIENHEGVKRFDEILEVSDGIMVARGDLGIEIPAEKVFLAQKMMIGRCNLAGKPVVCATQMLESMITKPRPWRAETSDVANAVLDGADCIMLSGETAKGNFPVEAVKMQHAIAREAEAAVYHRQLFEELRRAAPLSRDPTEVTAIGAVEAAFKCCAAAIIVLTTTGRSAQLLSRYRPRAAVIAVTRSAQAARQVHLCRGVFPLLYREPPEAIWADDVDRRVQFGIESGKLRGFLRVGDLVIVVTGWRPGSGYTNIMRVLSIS
PKR R510Q, sequence (P30613 whole entry R510Q): as the sequence (P30613 whole entry T384W) above, with W384T, R510Q counted along it
PKR wt, sequence (P30613 whole entry): as the sequence (P30613 whole entry T384W) above, with W384T counted along it
PKR R532W, sequence (P30613 whole entry R532W): as the sequence (P30613 whole entry T384W) above, with W384T, R532W counted along it

Structure (SMILES)	activation at 1 µM [1]	activation at 1 µM [2]	activation at 1 µM [3]	activation at 1 µM [4]
C[C@H]1CN(C(=O)c2ccc(NS(=O)(=O)c3cccc4cccnc34)cc2)CCN1C(=O)c1ccccn1	101 to 500%	101 to 500%	101 to 500%	1 to 100%
C[C@H]1CN(C(=O)c2ccccn2)CCN1C(=O)c1ccc(NS(=O)(=O)c2cccc3cccnc23)cc1	1 to 100%	101 to 500%	101 to 500%	1 to 100%
C[C@@H]1CN(C(=O)c2ccc(NS(=O)(=O)c3cccc4cccnc34)cc2)CCN1C(=O)c1ccccn1	101 to 500%	101 to 500%	1 to 100%	1 to 100%
CC(C)[C@H]1CN(C(C)c2ccc(F)cc2)CCN1C(=O)c1ccc(NS(=O)(=O)c2cccc3cccnc23)cc1 (some centres unmarked)	101 to 500%	101 to 500%	101 to 500%	1 to 100%
O=C(c1ccc(NS(=O)(=O)c2cccc3cccnc23)cc1)N1CCN(CC2CC2)c2ccccc21	101 to 500%	101 to 500%	101 to 500%	1 to 100%
O=C(c1ccc(NS(=O)(=O)c2cccc3cccnc23)cc1)N1CCN(Cc2cc(F)cc(F)c2)c2ccccc21	101 to 500%	101 to 500%	101 to 500%	1 to 100%
CC(C)OC(=O)N1CCN(C(=O)c2ccc(NS(=O)(=O)c3cccc4cccnc34)cc2)c2ccccc21	1 to 100%	1 to 100%	1 to 100%	1 to 100%
C[C@H]1CN(CC2CC2)CCN1C(=O)c1ccc(NS(=O)(=O)c2cccc3cccnc23)cc1Cl	1 to 100%	1 to 100%	1 to 100%	1 to 100%
C[C@H]1CN(Cc2cc(F)cc(F)c2)CCN1C(=O)c1ccc(NS(=O)(=O)c2cccc3cccnc23)cc1Cl	1 to 100%	1 to 100%	101 to 500%	101 to 500%
O=C(c1ccc(NS(=O)(=O)c2cccc3cccnc23)cc1)N1CCN(CC2CC2)C[C@@H]1c1ccccc1	1 to 100%	1 to 100%	1 to 100%	1 to 100%
O=C(c1ccc(NS(=O)(=O)c2cccc3cccnc23)cc1)N1CCN(Cc2cc(F)cc(F)c2)C[C@@H]1c1ccccc1	1 to 100%	1 to 100%	1 to 100%	101 to 500%
C[C@H]1CN(CC2CCCC2)CCN1C(=O)c1ccc(NS(=O)(=O)c2cccc3cccnc23)cc1Cl	1 to 100%	1 to 100%	1 to 100%	1 to 100%
C[C@H]1CN(CC2CCOC2)CCN1C(=O)c1ccc(NS(=O)(=O)c2cccc3cccnc23)cc1Cl (some centres unmarked)	101 to 500%	1 to 100%	101 to 500%	1 to 100%
C[C@H]1CN(Cc2c(F)cc(F)cc2F)CCN1C(=O)c1ccc(NS(=O)(=O)c2cccc3cccnc23)cc1Cl	101 to 500%	101 to 500%	1 to 100%	101 to 500%
CC(c1c(F)ccc(F)c1F)N1CCN(C(=O)c2ccc(NS(=O)(=O)c3cccc4cccnc34)cc2)[C@H](C)C1 (some centres unmarked)	101 to 500%	101 to 500%	101 to 500%	1 to 100%
O=C1CN(Cc2cc(F)cc(F)c2)CCN1C(=O)c1ccc(NS(=O)(=O)c2cccc3cccnc23)cc1	101 to 500%	101 to 500%	101 to 500%	1 to 100%

Continued, values first:

activation at 1 µM [1]	activation at 1 µM [2]	activation at 1 µM [3]	activation at 1 µM [4]	Structure (SMILES)
101 to 500%	1 to 100%	1 to 100%	1 to 100%	CC(C)[C@H]1CN(Cc2ccc(F)cc2)CCN1C(=O)c1ccc(NS(=O)(=O)c2cccc3cccnc23)cc1
101 to 500%	1 to 100%	1 to 100%	1 to 100%	CC(C)[C@H]1CN(Cc2cc(F)cc(F)c2)CCN1C(=O)c1ccc(NS(=O)(=O)c2cccc3cccnc23)cc1
1 to 100%	1 to 100%	1 to 100%	101 to 500%	CC(c1ccc(Cl)c(F)c1)N1CCN(C(=O)c2ccc(NS(=O)(=O)c3cccc4cccnc34)cc2)[C@@H](C)C1 (some centres unmarked)
1 to 100%	1 to 100%	1 to 100%	1 to 100%	CC(c1ccccc1F)N1CCN(C(=O)c2ccc(NS(=O)(=O)c3cccc4cccnc34)cc2)[C@H](C)C1 (some centres unmarked)
1 to 100%	1 to 100%	101 to 500%	1 to 100%	C[C@H]1CN(Cc2ccc(F)cc2)CCN1C(=O)c1ccc(NS(=O)(=O)c2cccc3cccnc23)cc1Cl
101 to 500%	1 to 100%	101 to 500%	1 to 100%	C[C@H]1CN(Cc2ccc(Cl)c(F)c2)CCN1C(=O)c1ccc(NS(=O)(=O)c2cccc3cccnc23)cc1Cl
101 to 500%	101 to 500%	1 to 100%	1 to 100%	CC(c1ccc(F)c(F)c1F)N1CCN(C(=O)c2ccc(NS(=O)(=O)c3cccc4cccnc34)cc2)[C@H](C)C1 (some centres unmarked)
101 to 500%	101 to 500%	101 to 500%	1 to 100%	CC(c1ccc(F)cc1Cl)N1CCN(C(=O)c2ccc(NS(=O)(=O)c3cccc4cccnc34)cc2)[C@H](C)C1 (some centres unmarked)
101 to 500%	1 to 100%	101 to 500%	1 to 100%	CC(c1c(F)ccc(F)c1F)N1CCN(C(=O)c2ccc(NS(=O)(=O)c3cccc4cccnc34)cc2)[C@@H](C)C1 (some centres unmarked)
1 to 100%	1 to 100%	101 to 500%	101 to 500%	CC1CN(Cc2cc(F)cc(F)c2)CC(C)N1C(=O)c1ccc(NS(=O)(=O)c2cccc3cccnc23)cc1 (centres unmarked)
101 to 500%	101 to 500%	101 to 500%	1 to 100%	CC1CN(CC2CC2)CC(C)N1C(=O)c1ccc(NS(=O)(=O)c2cccc3cccnc23)cc1 (centres unmarked)
1 to 100%	1 to 100%	101 to 500%	1 to 100%	CC1CN(Cc2ccc(F)cc2)CC(C)N1C(=O)c1ccc(NS(=O)(=O)c2cccc3cccnc23)cc1 (centres unmarked)
101 to 500%	101 to 500%	1 to 100%	101 to 500%	CC1CN(Cc2ccc(Cl)c(F)c2)CC(C)N1C(=O)c1ccc(NS(=O)(=O)c2cccc3cccnc23)cc1 (centres unmarked)
101 to 500%	101 to 500%	101 to 500%	101 to 500%	CC1CN(CC2CCCCC2)CC(C)N1C(=O)c1ccc(NS(=O)(=O)c2cccc3cccnc23)cc1 (centres unmarked)
1 to 100%	1 to 100%	101 to 500%	1 to 100%	CC1CN(Cc2c(F)ccc(F)c2F)CC(C)N1C(=O)c1ccc(NS(=O)(=O)c2cccc3cccnc23)cc1 (centres unmarked)
101 to 500%	101 to 500%	101 to 500%	101 to 500%	CC1CN(Cc2cc(F)cc(F)c2F)CC(C)N1C(=O)c1ccc(NS(=O)(=O)c2cccc3cccnc23)cc1 (centres unmarked)
1 to 100%	1 to 100%	101 to 500%	1 to 100%	CC1CN(Cc2cc(F)c(F)c(F)c2)CC(C)N1C(=O)c1ccc(NS(=O)(=O)c2cccc3cccnc23)cc1 (centres unmarked)
1 to 100%	101 to 500%	101 to 500%	101 to 500%	CC1CN(Cc2c(F)cc(F)cc2F)CC(C)N1C(=O)c1ccc(NS(=O)(=O)c2cccc3cccnc23)cc1 (centres unmarked)
1 to 100%	101 to 500%	1 to 100%	101 to 500%	CC1CN(Cc2cc(F)c(F)cc2F)CC(C)N1C(=O)c1ccc(NS(=O)(=O)c2cccc3cccnc23)cc1 (centres unmarked)

Source: US9404081B2, “Pyruvate kinase activators for use in therapy” (AGIOS PHARMACEUTICALS, INC., priority 2011, dated 2016)
